Measured values from patent publication US6737383B1, “Herbicidal oxadiazolidines” (priority 1999, dated 2004).

Legend:
[1] = tested on: blackgrass; assay: Test B pre/postemergence blackgrass; assay type: in vivo, Alopecurus myosuroides
Method in brief: (§1)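 Herbicidal effect was estimated by eye on a ten-point control scale after plants spent twelve to sixteen days in a greenhouse following soil or foliar treatment. Foliar sprays targeted plants at one to four leaves; all doses were formulated in a non-phytotoxic solvent with surfactant.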

[2] = tested on: corn; assay: Test B pre/postemergence corn; assay type: in vivo, Zea mays
Method in brief: as §1

[3] = tested on: sugar beet; assay: Test B pre/postemergence sugar beet; assay type: in vivo, Beta vulgaris; conditions: Preemergence
Method in brief: as §1

[4] = tested on: surinam grass; assay: Test B pre/postemergence surinam grass; assay type: in vivo, Brachiaria decumbens
Method in brief: as §1

[5] = tested on: duck salad; assay: Test B flood test duck salad; assay type: in vivo, Heteranthera limosa
Method in brief: (§2)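 Read-out is a visual response score from 0 (no effect) to 10 (complete control), assigned by comparison with untreated controls. Treatment was applied at the 2-leaf stage, and plants stayed in the greenhouse for twelve to sixteen days before scoring.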

[6] = tested on: rape; assay: Test B pre/postemergence rape; assay type: in vivo, Brassica napus
Method in brief: as §1

[7] = tested on: rice; assay: Test B flood test rice; assay type: in vivo, Oryza sativa
Method in brief: as §2

[8] = tested on: wheat; assay: Test B pre/postemergence wheat; assay type: in vivo, Triticum aestivum; conditions: Preemergence
Method in brief: as §1

[9] = tested on: morningglory; assay: Test B pre/postemergence morningglory; assay type: in vivo, Ipomoea hederacea
Method in brief: as §1

[10] = tested on: purple nutsedge; assay: Test B pre/postemergence purple nutsedge; assay type: in vivo, Cyperus rotundus
Method in brief: as §1

[11] = tested on: smallflower flatsedge; assay: Test B flood test smallflower flatsedge; assay type: in vivo, Cyperus difformis
Method in brief: as §2

[12] = tested on: soybean; assay: Test B pre/postemergence soybean; assay type: in vivo, Glycine max; conditions: Preemergence
Method in brief: as §1

[13] = tested on: giant foxtail; assay: Test B pre/postemergence giant foxtail; assay type: in vivo, Setaria faberii
Method in brief: as §1

[14] = tested on: cocklebur; assay: Test B pre/postemergence cocklebur; assay type: in vivo, Xanthium strumarium
Method in brief: as §1

[15] = tested on: pigweed; assay: Test B pre/postemergence pigweed; assay type: in vivo, Amaranthus retroflexus
Method in brief: as §1

[16] = tested on: bamyardgrass; assay: Test B flood test barnyardgrass; assay type: in vivo, Echinochloa crus-galli
Method in brief: as §2

[17] = tested on: crabgrass; assay: Test B pre/postemergence crabgrass; assay type: in vivo, Digitaria sanguinalis
Method in brief: as §1

[18] = tested on: velvetleaf; assay: Test B pre/postemergence velvetleaf; assay type: in vivo, Abutilon theophrasti; conditions: Preemergence
Method in brief: as §1

[19] = tested on: wild oat; assay: Test B pre/postemergence wild oat; assay type: in vivo, Avena fatua; conditions: Preemergence
Method in brief: as §1

[20] = tested on: bedstraw; assay: Test B pre/postemergence bedstraw; assay type: in vivo, Galium aparine
Method in brief: as §1

[21] = Preemergence, Rate 31 g/ha, visual rating, scale 0 to 10 (0 no effect, 10 complete control)
[22] = Preemergence, Rate 62 g/ha, scale of 0 to 10 where 0 is no effect and 10 is complete control
[23] = Preemergence, Rate 250 g/ha, scale of 0 to 10 where 0 is no effect and 10 is complete control
[24] = Rate 31 g/ha, Postemergence, scale 0 to 10
[25] = Rate 62 g/ha, Postemergence, scale of 0 to 10 where 0 is no effect and 10 is complete control
[26] = Rate 125 g/ha, Postemergence, scale 0 to 10
[27] = Rate 125 g/ha, Preemergence, scale of 0 to 10 where 0 is no effect and 10 is complete control
[28] = Rate 31 g/ha, visual rating, scale 0 to 10 (0 no effect, 10 complete control)
[29] = Rate 62 g/ha, scale of 0 to 10 where 0 is no effect and 10 is complete control
[30] = Rate 250 g/ha, scale of 0 to 10 where 0 is no effect and 10 is complete control
[31] = Rate 125 g/ha, scale of 0 to 10 where 0 is no effect and 10 is complete control
[32] = Rate 62 g/ha, headed Pre-emergence (flood test species), scale 0 to 10 (0 no effect, 10 complete control)
[33] = Rate 125 g/ha, Pre-emergence, flood test species, scale 0 to 10 where 0 is no effect and 10 is complete control
[34] = Rate 250 g/ha, Pre-emergence, flood-test species, scale 0 to 10, 0 is no effect, 10 is complete control
[35] = Rate 500 g/ha, Pre-emergence, flood test species, scale 0 to 10 (0 no effect, 10 complete control)

SMILES: C=C(Cn1c(=O)on(C(=O)N(c2ccc(F)cc2)C(C)C)c1=O)C[Si](C)(C)C [Compound 256]
- Blackgrass plant response rating [1, 21]: 0
- Blackgrass plant response rating [1, 22]: 0
- Blackgrass plant response rating [1, 23]: 0
- Blackgrass plant response rating [1, 24]: 0
- Blackgrass plant response rating [1, 25]: 0
- Blackgrass plant response rating [1, 26]: 0
- Blackgrass plant response rating [1, 27]: 0
- Plant response rating (0 to 10; 0 is no effect, 10 is complete control), Blackgrass ([1]; Rate 250 g/ha, Postemergence): 0
- Corn plant response rating [2, 21]: 0
- Corn plant response rating [2, 22]: 0
- Corn plant response rating [2, 23]: 0
- Corn plant response rating [2, 24]: 0
- Corn plant response rating [2, 25]: 0
- Corn plant response rating [2, 26]: 0
- Corn plant response rating [2, 27]: 0
- Plant response rating (0 to 10; 0 is no effect, 10 is complete control), Corn ([2]; Rate 250 g/ha, Postemergence): 0
- Sugarbeets plant response rating [3, 28]: 0
- Sugarbeets plant response rating [3, 29]: 0
- Sugarbeets plant response rating [3, 30]: 0
- Sugarbeets plant response rating [3, 31]: 0
- B. signalgrass plant response rating [4, 21]: 0
- B. signalgrass plant response rating [4, 22]: 0
- B. signalgrass plant response rating [4, 23]: 0
- B. signalgrass plant response rating [4, 24]: 0
- B. signalgrass plant response rating [4, 25]: 0
- B. signalgrass plant response rating ([4]; Rate 125 g/ha, Postemergence, scale 0 (no effect) to 10 (complete control)): 0
- B. signalgrass plant response rating [4, 27]: 0
- Plant response rating (0 to 10; 0 is no effect, 10 is complete control), B. signalgrass ([4]; Rate 250 g/ha, Postemergence): 0
- Ducksalad plant response rating [5, 32]: 0
- Ducksalad plant response rating [5, 33]: 0
- Ducksalad plant response rating [5, 34]: 0
- Ducksalad plant response rating [5, 35]: 0
- Rape plant response rating [6, 21]: 0
- Rape plant response rating [6, 22]: 0
- Rape plant response rating [6, 23]: 0
- Rape plant response rating [6, 24]: 0
- Rape plant response rating [6, 27]: 0
- Plant response rating (0 to 10; 0 is no effect, 10 is complete control), Rape ([6]; Rate 250 g/ha, Postemergence): 2
- Rice plant response rating [7, 32]: 0
- Rice plant response rating [7, 33]: 0
- Rice plant response rating [7, 34]: 0
- Rice plant response rating [7, 35]: 0
- Wheat plant response rating [8, 28]: 0
- Wheat plant response rating [8, 29]: 0
- Wheat plant response rating [8, 30]: 0
- Wheat plant response rating [8, 31]: 0
- Morningglory plant response rating [9, 21]: 0
- Morningglory plant response rating [9, 22]: 0
- Morningglory plant response rating [9, 23]: 0
- Morningglory plant response rating [9, 24]: 6
- Morningglory plant response rating [9, 27]: 0
- Nutsedge plant response rating [10, 23]: 0
- Nutsedge plant response rating [10, 24]: 0
- Plant response rating (0 to 10; 0 is no effect, 10 is complete control), Nutsedge ([10]; Rate 250 g/ha, Postemergence): 0
- S. Flatsedge plant response rating [11, 32]: 0
- S. Flatsedge plant response rating [11, 33]: 0
- S. Flatsedge plant response rating [11, 34]: 0
- S. Flatsedge plant response rating [11, 35]: 0
- Soybean plant response rating [12, 28]: 0
- Soybean plant response rating [12, 29]: 0
- Soybean plant response rating [12, 30]: 0
- Soybean plant response rating [12, 31]: 0
- Giant foxtail plant response rating [13, 21]: 0
- Giant foxtail plant response rating [13, 22]: 0
- Giant foxtail plant response rating [13, 23]: 9
- Giant foxtail plant response rating [13, 24]: 0
- Giant foxtail plant response rating [13, 27]: 5
- Plant response rating (0 to 10; 0 is no effect, 10 is complete control), Giant foxtail ([13]; Rate 250 g/ha, Postemergence): 0
- Cocklebur plant response rating [14, 21]: 0
- Cocklebur plant response rating [14, 22]: 0
- Cocklebur plant response rating [14, 23]: 0
- Cocklebur plant response rating [14, 24]: 0
- Cocklebur plant response rating [14, 25]: 0
- Cocklebur plant response rating [14, 26]: 0
- Cocklebur plant response rating [14, 27]: 0
- Plant response rating (0 to 10; 0 is no effect, 10 is complete control), Cocklebur ([14]; Rate 250 g/ha, Postemergence): 0
- Redroot pigweed plant response rating [15, 21]: 0
- Redroot pigweed plant response rating [15, 22]: 0
- Redroot pigweed plant response rating [15, 23]: 0
- Redroot pigweed plant response rating [15, 24]: 0
- Redroot pigweed plant response rating [15, 27]: 0
- Plant response rating (0 to 10; 0 is no effect, 10 is complete control), Redroot pigweed ([15]; Rate 250 g/ha, Postemergence): 4
- Barnyardgrass plant response rating [16, 32]: 0
- Barnyardgrass plant response rating [16, 33]: 0
- Barnyardgrass plant response rating [16, 34]: 0
- Barnyardgrass plant response rating [16, 35]: 0
- Crabgrass plant response rating [17, 21]: 0
- Crabgrass plant response rating [17, 22]: 0
- Crabgrass plant response rating [17, 23]: 2
- Crabgrass plant response rating [17, 24]: 0
- Crabgrass plant response rating [17, 27]: 2
- Plant response rating (0 to 10; 0 is no effect, 10 is complete control), Crabgrass ([17]; Rate 250 g/ha, Postemergence): 1
- Velvetleaf plant response rating [18, 28]: 0
- Velvetleaf plant response rating [18, 29]: 0
- Velvetleaf plant response rating [18, 30]: 0
- Velvetleaf plant response rating [18, 31]: 0
- Wild oats plant response rating [19, 28]: 0
- Wild oats plant response rating [19, 29]: 0
- Wild oats plant response rating [19, 30]: 0
- Wild oats plant response rating [19, 31]: 0
- Bedstraw plant response rating [20, 21]: 0
- Bedstraw plant response rating [20, 22]: 0
- Bedstraw plant response rating [20, 23]: 0
- Bedstraw plant response rating [20, 24]: 0
- Bedstraw plant response rating [20, 25]: 0
- Bedstraw plant response rating [20, 26]: 0
- Bedstraw plant response rating [20, 27]: 0
- Plant response rating (0 to 10; 0 is no effect, 10 is complete control), Bedstraw ([20]; Rate 250 g/ha, Postemergence): 0
